Test results reported in ChEMBL document CHEMBL1131852, “Synthesis and antitumor activity of water-soluble duocarmycin B1 prodrugs” (Bioorg Med Chem Lett, 1999).

Tests used:
Colon 26 [1] = experiment: In vivo antitumor activity against Colon 26 […] at dose 0.25 mg/kg; format: functional
Colon 26 [2] = experiment: In vivo antitumor activity against Colon 26 […] at dose 0.5 mg/kg; format: functional
HeLa [3] = experiment: In vitro anticellular activity against HeLa S3 cells 1 hr after administration of the compound; format: functional, cell-based; conditions: Homo sapiens
HeLa [4] = experiment: In vitro anticellular activity against HeLa S3 cells 72 hr after administration of the compound; format: functional, cell-based; conditions: Homo sapiens
[5] = In vivo antitumor activity against Sarcoma 180 at dose 0.5 mg/kg; format: functional, Mus musculus
[6] = In vivo antitumor activity against Sarcoma 180 at dose 1.0 mg/kg; format: functional, Mus musculus
Colon 26 [7] = experiment: In vivo antitumor activity against Colon 26 […] at dose 2.0 mg/kg; format: functional
Colon 26 [8] = experiment: In vivo antitumor activity against Colon 26 […] at dose 1.0 mg/kg; format: functional
[9] = In vivo antitumor activity against Sarcoma 180 at dose 2.0 mg/kg; format: functional, Mus musculus
[10] = In vivo antitumor activity against Sarcoma 180 at dose 16.0 mg/kg; format: functional, Mus musculus
[11] = In vivo antitumor activity against Sarcoma 180 at dose 8.0 mg/kg; format: functional, Mus musculus

COC(=O)[C@]1(C)Nc2c(OC(=O)N3CCN(C)CC3)cc3c(c2C1=O)[C@H](CBr)CN3C(=O)c1cc2cc(OC)c(OC)c(OC)c2[nH]1.Cl
T/C (Colon 26 [1]): 0.37
T/C (Colon 26 [2]): 0.13
IC50 (HeLa [3]): 170 nM
IC50 (HeLa [4]): 15 nM
T/C [5]: 0.26
T/C [6]: 0.13

COC(=O)[C@]1(C)Nc2c(OC(=O)N3CCN(C)CC3)cc3c(c2C1=O)C[C@H](Br)CN3C(=O)c1cc2cc(OC)c(OC)c(OC)c2[nH]1.Cl
T/C (Colon 26 [7]): 0.045
T/C (Colon 26 [8]): 0.23
IC50 (HeLa [3]): 2000 nM
IC50 (HeLa [4]): 70 nM
T/C [6]: 0.19
T/C [9]: 0.083

COC(=O)[C@]1(C)Nc2c(O)cc3c(c2C1=O)C[C@H](Br)CN3C(=O)c1cc2cc(OC)c(OC)c(OC)c2[nH]1
IC50 (HeLa [3]): 0.13 nM
IC50 (HeLa [4]): 0.038 nM
T/C [5]: 0.22

COC(=O)[C@]1(C)Nc2c(OP(=O)(O)O)cc3c(c2C1=O)C[C@H](Br)CN3C(=O)c1cc2cc(OC)c(OC)c(OC)c2[nH]1
IC50 (HeLa [3]): 40 nM
IC50 (HeLa [4]): 3.2 nM
T/C [5]: 0.57
T/C [6]: 0.29

COC(=O)[C@]1(C)Nc2c(O[C@@H]3OC(CO)[C@@H](O)C(O)[C@@H]3O)cc3c(c2C1=O)C[C@H](Br)CN3C(=O)c1cc2cc(OC)c(OC)c(OC)c2[nH]1 (stereo partly drawn)
IC50 (HeLa [3]): 2000 nM
IC50 (HeLa [4]): 830 nM
T/C [10]: 0.38
T/C [11]: 0.55
